≈ marks a conversion by molar mass, not a printed value. Where “and” joins values, the source holds several entries; their conditions need not be identical. Identical values can stand only once. Like-named read-outs stand apart in the source and are kept apart here.
Experiments:
[1] = system: Mycobacterium tuberculosis H37Rv (ATCC-27294); experiment: MIC by MABA (Microplate Alamar Blue Assay), in vitro antimicrobial activity; type: cell-based; conditions: for Inhibition (%): Table 2, M. tuberculosis H37Rv (ATCC 27294), concentration not given
[2] = system: promastigote forms of Leishmania amazonensis; experiment: Leishmanicide evaluation in vitro, live parasites counted by fluorescence; type: cell-based; conditions: L. amazonensis promastigotes, read-out: Percentage of parasitic inhibition; for inhibition at 160 µg/mL: concentration 160 μg/mL; for inhibition at 10 µg/mL: concentration 10 μg/mL
Experimental: The evaluation of the leishmanicide activity of the type I and II 1,2,3-triazole derivatives was made through in vitro essays against promastigote forms of Leishmania amazonensis, and after the incubation with compounds, live parasites are counted by fluorescence, thus obtaining as a result, the percentage of inhibition of the compounds evaluated.
Essays were performed in triplicate using pentamidine as a positive pattern with a 160 μg/mL concentration.
The evaluation of the leishmanicide activity of type I (Formula XII) and II (Formula XIII) imidazole derivatives was performed through in vitro essays against promastigote forms of Leishmania amazonensis, and after the incubation with compounds, live parasites are counted by fluorescence, thus obtaining as a result the inhibition percentage of the evaluated compounds.
Essays were performed in triplicate using pentamidine as a positive pattern with a 160 μg/mL concentration, determining which compounds evaluated inhibited the parasite in lower concentrations and the percentage higher than the pattern. Table 6 lists the results obtained in the leishmanicide evaluation of derivatives 140a 148a 146a, 149a.

[3] = Mycobacterium tuberculosis, Table 2, type I and II 1,2,3-triazoles, M. tuberculosis H37Rv (ATCC 27294), MABA, read-out: MIC
[4] = Table 2, type I and II 1,2,3-triazoles, M. tuberculosis H37Rv (ATCC 27294), MABA
[5] = 1,2,3-triazole derivatives types I-III and rifampicin comparison pattern, M. tuberculosis H37Rv, MABA
[6] = Mycobacterium tuberculosis, Table 4, type I (Formula XII) imidazole derivatives, read-out: MIC
[7] = Mycobacterium tuberculosis, Table 5, type II (Formula XIII) imidazole derivatives, read-out: MIC
[8] = Mycobacterium tuberculosis, 1,2,3-triazole derivatives types I-III and rifampicin comparison pattern, M. tuberculosis H37Rv, MABA, read-out: MIC

N#Cc1ccc(-n2cc(C(F)F)nn2)cc1 [121i, 1-(4-cyanophenyl)-4-difluoromethyl-1H-1,2,3-triazole]
MIC [1, 3]: 20 µg/mL (≈ 90.8 µM)

COc1ccc(OC)c(-n2cc(C=O)nn2)c1 [114e, 4-carboxaldehyde-1-(2,5-dimethoxyphenyl)-1H-1,2,3-triazole]
MIC (μg/mL) [1, 4]: 80,0 μg/mL

Brc1ccc(/N=C/c2cn(-c3ccc(Br)cc3)nn2)cc1 [compound 120, (E)-4-bromo-N-((1-(4-bromophenyl)-1H-1,2,3-triazole-4-il)methylene) benzenamine]
MIC [1, 5]: 20 µg/mL (≈ 49.3 µM)

COc1ccccc1-n1cc(C=O)nn1 [114l, 4-carboxaldehyde-1-(2-methoxyphenyl)-1H-1,2,3-triazole]
MIC (μg/mL) [1, 4]: 40,0 μg/mL

CCOC(=O)c1ncn(-c2ccc(C)cc2)c1NC(=O)c1ccccc1F [149a, Ester ethyl 5-[(2-fluorobenzoic)amino]-1-(4-methylphenyl)-1H-imidazole-4-carboxylate]
inhibition at 160 µg/mL [2]: 93%

CCOC(=O)c1ncn(-c2ccc(Cl)cc2)c1N(C(=O)c1ccccc1F)C(=O)c1ccccc1F [146c]
MIC [1, 6]: 3 µg/mL (≈ 5.88 µM)

CCOC(=O)c1ncn(-c2ccc(Cl)cc2)c1NC(=O)c1ccccc1F [149c, Ester ethyl 1-(4-chlorophenyl)-5-[(2-fluorobenzoic)amino]-1H-imidazole-4-carboxylate]
MIC [1, 7]: 3 µg/mL (≈ 7.74 µM)

N#Cc1cccc(-n2cc(C(F)F)nn2)c1 [121h, 1-(3-cyanophenyl)-4-difluoromethyl-1H-1,2,3-triazole]
MIC [1, 3]: 80 µg/mL (≈ 363 µM)

CCOC(=O)c1ncn(-c2ccc(C#N)cc2)c1N(C(=O)c1ccc(F)cc1)C(=O)c1ccc(F)cc1 [140b]
MIC [1, 6]: 1.2 µg/mL (≈ 2.4 µM)

FC(F)c1cn(-c2cc(Cl)cc(Cl)c2)nn1 [121g, 1-(3,5-dichlorophenyl)-4-difluoromethyl-1H-1,2,3-triazole]
MIC [1, 3]: 80 µg/mL (≈ 303 µM) | Inhibition (%) [1]: 55%

FC(F)c1cn(-c2ccc(Br)cc2)nn1 [121b, 1-(4-bromophenyl)-4-difluoromethyl-1H-1,2,3-triazole]
MIC [1, 3]: 20 µg/mL (≈ 73 µM) | Inhibition (%) [1]: 75%

CCOC(=O)c1ncn(-c2ccc(C)cc2)c1N(C(=O)c1ccc(F)cc1)C(=O)c1ccc(F)cc1 [140a]
inhibition at 10 µg/mL [2]: 79%

COc1ccc(-n2cc(C=O)nn2)cc1OC [114m, 4-carboxaldehyde 1-(3,4-dimethoxyphenyl)-1H-1,2,3-triazole]
MIC (μg/mL) [1, 4]: 80,0 μg/mL

N=C(N)c1ccc(OCCCCCOc2ccc(C(=N)N)cc2)cc1 [Pentamidine, pentamidine, reference compound]
inhibition at 160 µg/mL [2]: 53%

FC(F)c1cn(-c2cccc(Cl)c2)nn1 [121f, 1-(3-chlorophenyl)-4-difluoromethyl-1H-1,2,3-triazole]
inhibition at 10 µg/mL [2]: 93% | MIC [1, 3]: 80 µg/mL (≈ 348 µM) | Inhibition (%) [1]: 54%

N#Cc1cccc(-n2cc(C=O)nn2)c1 [114h, 4-carboxaldehyde-1-(3-cyanophenyl)-1H-1,2,3-triazole]
MIC (μg/mL) [1, 4]: 20,0 μg/mL

FC(F)c1cn(-c2ccc(Cl)cc2)nn1 [121a, 1-(4-chlorophenyl)-4-difluoromethyl-1H-1,2,3-triazole]
MIC ([1]; Mycobacterium tuberculosis): 40 µg/mL (≈ 174 µM) | MIC (μg/mL) [1, 4]: 40,0 μg/mL

O=[N+]([O-])c1ccc(-n2cc(C(F)F)nn2)cc1 [121j, 1-(4-nitrophenyl)-4-difluoromethyl-1H-1,2,3-triazole]
MIC [1, 8]: 40 µg/mL (≈ 167 µM)

O=Cc1cn(-c2cccc(Cl)c2)nn1 [114f, 4-carboxaldehyde-1-(3-chlorophenyl)-1H-1,2,3-triazole]
inhibition at 320 µg/mL ([2]; concentration 320 μg/mL): 72% | MIC [1, 3]: 10 µg/mL (≈ 48.2 µM) | Inhibition (%) [1]: 100%

CCOC(=O)c1ncn(-c2ccc(C#N)cc2)c1NC(=O)c1ccccc1F [149b, Ester ethyl 1-(4-cyanophenyl)-5-[(2-fluorobenzoic)amino]-1H-imidazole-4-carboxylate]
MIC [1, 7]: 3 µg/mL (≈ 7.93 µM)

CO[C@H]1/C=C/O[C@@]2(C)Oc3c(C)c(O)c4c(O)c(c(/C=N/N5CCN(C)CC5)c(O)c4c3C2=O)NC(=O)/C(C)=C\C=C\[C@H](C)[C@H](O)[C@@H](C)[C@@H](O)[C@@H](C)[C@H](OC(C)=O)[C@@H]1C [Rifampicin, rifampicin, reference compound]
MIC [1, 5]: 1.0 µg/mL (≈ 1.22 µM) | MIC ([1]; Mycobacterium tuberculosis, imidazole derivatives and rifampicin comparison pattern, M. tuberculosis H37Rv, MABA, read-out: MIC): 1 µg/mL (≈ 1.22 µM) | MIC (μg/mL) [1, 4]: 1,0 μg/mL

CCOC(=O)c1ncn(-c2ccc(C)cc2)c1N(C(=O)c1ccccc1F)C(=O)c1ccccc1F [146a]
inhibition at 80 µg/mL ([2]; concentration 80 μg/mL): 75% | MIC [1, 6]: 3 µg/mL (≈ 6.13 µM)

COc1ccc(OC)c(-n2cc(C(F)F)nn2)c1 [121e, 1-(2,5-dimethoxyphenyl)-4-difluoromethyl-1H-1,2,3-triazole]
MIC [1, 3]: 80 µg/mL (≈ 313 µM) | Inhibition (%) [1]: 74%

O=Cc1cn(-c2ccc([N+](=O)[O-])cc2)nn1 [114j, 4-carboxaldehyde-1-(4-nitrophenyl)-1H-1,2,3-triazole]
inhibition at 160 µg/mL [2]: 11% | MIC [1, 8]: 20 µg/mL (≈ 91.7 µM)

O=Cc1cn(-c2ccc(Cl)cc2)nn1 [114a, 4-carboxaldehyde-1-(4-chlorophenyl)-1H-1,2,3-triazole]
MIC [1, 5]: 5 µg/mL and 5.0 µg/mL | MIC (μg/mL) [1, 4]: 5,0 μg/mL

Cc1ccc(-n2cc(C(F)F)nn2)cc1 [121c, 1-(4-methylphenyl)-4-difluoromethyl-1H-1,2,3-triazole]
MIC [1, 3]: 40 µg/mL (≈ 191 µM) | Inhibition (%) [1]: 87%

N#Cc1ccc(-n2cc(C=O)nn2)cc1 [114i, 4-carboxaldehyde-1-(4-cyanophenyl)-1H-1,2,3-triazole]
MIC [1, 5]: 5.0 µg/mL (≈ 25.2 µM) | MIC (μg/mL) [1, 4]: 5,0 μg/mL

O=Cc1cn(-c2ccc(Br)cc2)nn1 [114b, 4-carboxaldehyde-1-(4-bromophenyl)-1H-1,2,3-triazole]
MIC [1, 5]: 5.0 µg/mL (≈ 19.8 µM) | MIC (μg/mL) [1, 4]: 5,0 μg/mL

Cc1ccc(-n2cc(C=O)nn2)cc1 [114c, 4-carboxaldehyde-1-(4-methylphenyl)-1H-1,2,3-triazole]
MIC [1, 5]: 2.5 µg/mL (≈ 13.4 µM) | MIC (μg/mL) [1, 4]: 2,5 μg/mL

O=Cc1cn(-c2cc(Cl)cc(Cl)c2)nn1 [114g, 4-carboxaldehyde-1-(3,5-dichlorophenyl)-1H-1,2,3-triazole]
MIC [1, 5]: 2.5 µg/mL (≈ 10.3 µM) | MIC (μg/mL) [1, 4]: 2,5 μg/mL

COc1ccc(-n2cc(C(F)F)nn2)cc1 [121d, 1-(4-methoxyphenyl)-4-difluoromethyl-1H-1,2,3-triazole]
MIC [1, 3]: 10 µg/mL (≈ 44.4 µM) | Inhibition (%) [1]: 93%

COc1ccc(-n2cc(C=O)nn2)cc1 [114d, 4-carboxaldehyde-1-(4-methoxyphenyl)-1H-1,2,3-triazole]
MIC (μg/mL) [1, 4]: 10,0 μg/mL

CCOC(=O)c1ncn(-c2c(F)cccc2F)c1N(C(=O)c1ccccc1F)C(=O)c1ccccc1F [146e]
MIC [1, 6]: 3 µg/mL (≈ 5.87 µM)

Clc1ccc(/N=C/c2cn(-c3ccc(Cl)cc3)nn2)cc1 [compound 119, (E)-4-chloride-N-((1-(4-chlorophenyl)-1H-1,2,3-triazole-4-il)methylene) benzenamine]
MIC [1, 5]: 40 µg/mL (≈ 126 µM)

CCOC(=O)c1ncn(-c2ccc(C)cc2)c1NC(=O)c1ccc(F)cc1 [148a, Ester ethyl 5-[(4-fluorobenzoic)amino]-1-(4-methylphenyl)-1H-imidazole-4-carboxylate]
inhibition at 10 µg/mL [2]: 90% | MIC [1, 7]: 3 µg/mL (≈ 8.17 µM)

COc1ccc(-n2cc(C(F)F)nn2)cc1OC [121m, 1-(3,4-dimethoxyphenyl)-4-difluoromethyl-1H-1,2,3-triazole]
MIC [1, 3]: 80 µg/mL (≈ 313 µM) | Inhibition (%) [1]: 66%
